The values below come from PubChem BioAssay (NCI).

Test systems include OVCAR-4 ovarian; NCI-H23 lung; HCC-2998 colon; UACC-62 melanoma; TK-10 renal; U251 CNS; NCI-H226 lung; UACC-257 melanoma; MCF7 breast; OVCAR-5 ovarian; PC-3 prostate; 786-0 renal; ACHN renal; HL-60(TB) leukemia; SK-MEL-5 melanoma; SR leukemia; SNB-19 CNS.
Common to all, as to experiment: growth of human tumour cells (NCI), 48 h

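1) Cells in 96-well plates. 2) Compound, 48 h, 5 concentrations. 3) Linear interpolation between surrounding doses. 4) Unreached endpoint = highest concentration. TGI is the concentration that stops growth completely.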 *1 amine or outer side, *2 acyl side, *3 side chain or, on linkers, in order; H or OH if unused. Where a SMILES comes first, the peptide text is derived from it. Bridges are numbered along the chain shown (N, C = ends). [ ]: non-standard residue; d: D form. The star is where a group is joined. X34 = O=C(C(CCCCNO[*:3])N[*:1])[*:2]; Fmoc = O=C(OCC1c2ccccc2-c2ccccc21)* Bounds are passed on as bounds.

Turning to `NC(=O)CNC(=O)C1CCCN1C(=O)C1CCCCNOC(=O)CCC(NC(=O)OCC2c3ccccc3-c3ccccc32)C(=O)NC(Cc2c[nH]c3ccccc23)C(=O)N1` (stereo unspecified) (Fmoc-EW[X34]PG-NH2; ester 1-3; configuration not given here), the TGI in the assay on OVCAR-4 ovarian, with NCI-H23 lung, in the assay with HCC-2998 colon, with UACC-62 melanoma, with TK-10 renal and in the assay on U251 CNS was greater than 100 µM in each case. For the same compound, the TGI in the assay on NCI-H226 lung, in the assay on UACC-257 melanoma, with MCF7 breast, in the assay on OVCAR-5 ovarian, in the assay with PC-3 prostate and with 786-0 renal was greater than 100 µM throughout. The TGI in the assay on ACHN renal, with HL-60(TB) leukemia, with SK-MEL-5 melanoma, in the assay with SR leukemia and in the assay on SNB-19 CNS was greater than 100 µM each time.
`COc1cccc(Nc2nc(N)nc(N)c2N)c1`: the TGI in the assay on OVCAR-4 ovarian, in the assay with NCI-H23 lung, in the assay on HCC-2998 colon, in the assay with UACC-62 melanoma, in the assay on TK-10 renal and in the assay on U251 CNS was greater than 100 µM each time. In addition, the TGI in the assay on NCI-H226 lung is greater than 100 µM; in the assay on UACC-257 melanoma, greater than 100 µM; in the assay on MCF7 breast, 95 µM; with OVCAR-5 ovarian, greater than 100 µM; with PC-3 prostate it was greater than 100 µM; in the assay with 786-0 renal, greater than 100 µM. The TGI in the assay with ACHN renal was greater than 100 µM; with HL-60(TB) leukemia, greater than 100 µM; with SK-MEL-5 melanoma, 88.2 µM; in the assay with SR leukemia, 49.6 µM; in the assay on SNB-19 CNS, greater than 100 µM.
Take `O=C(N/N=C/c1ccc([N+](=O)[O-])cc1)Nc1ccc(Br)cc1`: the TGI with OVCAR-4 ovarian is greater than 100 µM; with NCI-H23 lung it was greater than 100 µM; with HCC-2998 colon it was 90.9 µM; in the assay with UACC-62 melanoma it was greater than 100 µM; with TK-10 renal it was greater than 100 µM; in the assay on U251 CNS, greater than 100 µM. In addition, the TGI in the assay on NCI-H226 lung, in the assay on UACC-257 melanoma, in the assay with MCF7 breast, in the assay on OVCAR-5 ovarian, in the assay with PC-3 prostate and in the assay with 786-0 renal was greater than 100 µM throughout. In addition, the TGI with ACHN renal, with HL-60(TB) leukemia, in the assay on SK-MEL-5 melanoma, in the assay with SR leukemia and with SNB-19 CNS was greater than 100 µM each time.
Take `CSC1=NNC(SC)=NN1`: the TGI is 0.309 µM in the assay with OVCAR-4 ovarian; 0.7 µM in the assay on NCI-H23 lung; greater than 1 µM in the assay on HCC-2998 colon; 0.29 µM with UACC-62 melanoma; 0.357 µM in the assay on TK-10 renal; 0.319 µM with U251 CNS. Moreover, the TGI with NCI-H226 lung was 0.389 µM; in the assay on UACC-257 melanoma, 0.258 µM; in the assay on MCF7 breast it was 0.396 µM; in the assay with OVCAR-5 ovarian, 0.324 µM; in the assay on PC-3 prostate, 0.303 µM; in the assay on 786-0 renal it was 0.328 µM. For the same compound, the TGI came out at 0.304 µM in the assay on ACHN renal; 0.407 µM in the assay on HL-60(TB) leukemia; 0.354 µM in the assay with SK-MEL-5 melanoma; 0.0483 µM in the assay with SR leukemia; 0.336 µM with SNB-19 CNS.
For `C=C1C(=O)OC2C3C(=C)[C@@H](OC(C)=O)CC3C(C)=CC(OC(=O)C(C)(OC(C)=O)C(C)OC(C)=O)[C@@H]12` (stereo partly specified), the TGI with OVCAR-4 ovarian worked out at 32.2 µM; with NCI-H23 lung it was 38.3 µM; with HCC-2998 colon, 33.2 µM; in the assay with UACC-62 melanoma it was 27.2 µM; in the assay with TK-10 renal it was 27.9 µM; in the assay with U251 CNS it was 30.8 µM. In addition, the TGI came to 51.8 µM in the assay on NCI-H226 lung; 32.1 µM in the assay on UACC-257 melanoma; 24.1 µM in the assay with MCF7 breast; 42.6 µM in the assay with OVCAR-5 ovarian; 32.4 µM with PC-3 prostate; 33.5 µM in the assay on 786-0 renal. The TGI with ACHN renal is 27 µM; in the assay on HL-60(TB) leukemia, 6.54 µM; with SK-MEL-5 melanoma, 25.3 µM; in the assay on SR leukemia, greater than 100 µM; in the assay with SNB-19 CNS, greater than 100 µM.
Regarding `N=CN=CC(=S)O[C@@H]1C(=O)N2CCC[C@@]23CCCC[C@@H]13`, the TGI in the assay on OVCAR-4 ovarian, in the assay with NCI-H23 lung, with HCC-2998 colon, in the assay with UACC-62 melanoma, in the assay with TK-10 renal and with U251 CNS was greater than 12.5 µM each time. Moreover, the TGI in the assay with NCI-H226 lung, in the assay with UACC-257 melanoma, in the assay on MCF7 breast, with OVCAR-5 ovarian, with PC-3 prostate and with 786-0 renal was greater than 12.5 µM in each case. Further, the TGI in the assay with ACHN renal, in the assay on HL-60(TB) leukemia, in the assay with SK-MEL-5 melanoma, in the assay on SR leukemia and in the assay with SNB-19 CNS was greater than 12.5 µM in each case.
`O=C1OC(C2(O)OC(=O)c3ccccc32)c2ccccc21` (stereo unspecified): the TGI with OVCAR-4 ovarian, in the assay on NCI-H23 lung, in the assay with HCC-2998 colon, in the assay on UACC-62 melanoma, in the assay with TK-10 renal and in the assay on U251 CNS was greater than 100 µM in each case. Moreover, the TGI in the assay with NCI-H226 lung, in the assay with UACC-257 melanoma, in the assay with MCF7 breast, in the assay with OVCAR-5 ovarian, in the assay with PC-3 prostate and in the assay on 786-0 renal was greater than 100 µM in each case. In addition, the TGI with ACHN renal, in the assay with HL-60(TB) leukemia, in the assay with SK-MEL-5 melanoma, in the assay with SR leukemia and in the assay on SNB-19 CNS was greater than 100 µM throughout.
For `CCNC12CCC(C1)C(C)(C)C2=O` (stereo unspecified), the TGI in the assay with OVCAR-4 ovarian, in the assay on NCI-H23 lung, in the assay on HCC-2998 colon, in the assay on UACC-62 melanoma, in the assay with TK-10 renal and in the assay on U251 CNS was greater than 100 µM in each case. Also, the TGI in the assay with NCI-H226 lung, in the assay on UACC-257 melanoma, in the assay with MCF7 breast, with OVCAR-5 ovarian, with PC-3 prostate and with 786-0 renal was greater than 100 µM throughout. The TGI in the assay with ACHN renal, with HL-60(TB) leukemia, in the assay with SK-MEL-5 melanoma, with SR leukemia and in the assay with SNB-19 CNS was greater than 100 µM throughout.
